Assay results: PubChem BioAssay (NCI)
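Exposure lasted 48 hours, with cells grown in 96-well plates and compounds tested at five concentrations. TGI: concentration producing complete growth inhibition.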

Assays:
Assay in all cases: NCI anticancer screen, dose series, 48 h
[1] = system: RXF 393 renal
[2] = system: MALME-3M melanoma
[3] = system: HCT-15 colon
[4] = system: OVCAR-3 ovarian
[5] = system: OVCAR-4 ovarian
[6] = system: HOP-62 NSCLC
[7] = system: NCI-H522 lung
[8] = system: A498 renal
[9] = system: SF-539 CNS
[10] = system: NCI-H460 lung
[11] = system: SR leukemia
[12] = system: A549 NSCLC
[13] = system: UACC-257 melanoma
[14] = system: COLO 205 colon
[15] = system: SN12C renal
[16] = system: TK-10 renal
[17] = system: OVCAR-5 ovarian
[18] = system: NCI-H226 lung

## Oc1ccc(Cn2c(-c3ccc(O)c(O)c3)nc3ccccc32)cc1O
[1]
  TGI: > 100 µM
[2]
  TGI: 41.4 µM
[3]
  TGI: > 100 µM
[4]
  TGI: 41.3 µM
[5]
  TGI: 54.1 µM
[6]
  TGI: 38 µM
[7]
  TGI: 17.1 µM
[8]
  TGI: > 100 µM
[9]
  TGI: 24.1 µM
[10]
  TGI: 63.4 µM
[11]
  TGI: 18.2 µM
[12]
  TGI: 66.2 µM
[13]
  TGI: > 100 µM
[14]
  TGI: 31.1 µM
[15]
  TGI: 40.6 µM
[16]
  TGI: 38 µM
[17]
  TGI: > 100 µM
[18]
  TGI: 22.4 µM
